According to ChEMBL document CHEMBL1221210, “A Cdc7 kinase inhibitor restricts initiation of DNA replication and has antitumor activity” (Nat Chem Biol, 2008):

Key:
HeLa [1] = assay: Inhibition of DNA replication in human HeLa cells assessed as interorigin distance between homogenous DNA fibers at 2 uM after 2 hrs by immunofluorescence assay; assay type: functional
HeLa [2] = assay: Inhibition of DNA replication in human HeLa cells assessed as interorigin distance between homogenous DNA fibers at 5 uM after 6 hrs by immunofluorescence assay; assay type: functional
HeLa [3] = assay: Inhibition of DNA replication in human HeLa cells assessed as increase in replication fork speed per min at 2 uM after 6 hrs by immunofluorescence assay; assay type: functional
HeLa [4] = assay: Inhibition of DNA replication in human HeLa cells assessed as increase in replication fork speed per min at 5 uM after 4 hrs by immunofluorescence assay; assay type: functional
HeLa [5] = assay: Inhibition of DNA replication in human HeLa cells assessed as increase in replication fork speed per min at 20 uM after 6 hrs by immunofluorescence assay; assay type: functional
NHDF [6] = assay: Induction of cell cycle arrest in NHDF expressing p53 gene assessed as accumulation at subG1 phase at 0.1 uM after 24hrs by FACS analysis; assay type: cell-based; details: human
[7] = Induction of cell cycle arrest in NHDF assessed as accumulation at subG1 phase at 5 uM after 24hrs by propidium-iodine staining based FACS analysis in presence of p53 specific siRNA; details: human
NHDF [8] = assay: Induction of cell cycle arrest in thymidine deficient NHDF assessed as DNA synthesis in S-phase at 5 uM after 2hrs FACS analysis; assay type: cell-based; details: human
Rattus norvegicus = assay: AUC in rat carrying DMBA-induced mammary carcinoma at 10 mg/kg, iv after 10 hrs; assay type: ADME, organism-based, Plasma; design: time < 10 hr, dose 10 mg/kg, route intravenous; details: in vivo
[9] = Clearance in rat carrying DMBA-induced mammary carcinoma at 10 mg/kg, iv after 10 hrs; assay type: ADME, organism-based; design: dose 10 mg/kg, route intravenous; details: in vivo
[10] = Inhibition of Ck2
[11] = biological target: Inhibitor of nuclear factor kappa-B kinase subunit beta (Homo sapiens, UniProt O14920); assay: Inhibition of IKK2
[12] = biological target: Mitogen-activated protein kinase 11 (Homo sapiens, UniProt Q15759); assay: Inhibition of P38beta
SF-268 = assay: Antiproliferative activity against p53 deficient human SF268 cells after 72 hrs; assay type: functional, cell-based; details: SF-268, 72 h
[13] = Antiproliferative activity against p53 deficient human HCT116/E6 cells after 72 hrs by proliferative assay; assay type: functional, cell-based; details: HCT116-E6, 72 h
OVCAR-8 = assay: Antiproliferative activity against p53 deficient human OVCAR8 cells after 72 hrs by proliferative assay; assay type: functional, cell-based; details: OVCAR-8, 72 h
HCT-15 [14] = assay: Antiproliferative activity against human HCT15 cells expressing p53 gene after 72 hrs by proliferative assay; assay type: functional, cell-based; details: HCT-15, 72 h
U2OS = assay: Antiproliferative activity against human U2OS cells expressing p53 gene after 72 hrs by proliferative assay; assay type: functional, cell-based
PC-3 [15] = assay: Antiproliferative activity against human PC3 cells expressing p53 gene after 72 hrs by proliferative assay; assay type: functional, cell-based; details: PC-3, 72 h
K562 [16] = assay: Induction of cell cycle arrest in p53 deficient human K562 cells assessed as accumulation at subG1 phase at 5 uM after 24hrs by FACS analysis; assay type: functional
MCF7 [17] = assay: Induction of cell cycle arrest in human MCF7 cells expressing p53 gene assessed as accumulation at subG1 phase at 5 uM after 24hrs by FACS analysis; assay type: functional
SF-539 [18] = assay: Induction of cell cycle arrest in human SF539 cells expressing p53 gene assessed as accumulation at subG1 phase at 5 uM after 24hrs by FACS analysis; assay type: functional
K562 [19] = assay: Induction of cell cycle arrest in p53 deficient human K562 cells assessed as accumulation at subG1 phase at 10 uM after 24hrs by FACS analysis; assay type: functional
COLO 205 [20] = assay: Induction of cell cycle arrest in p53 deficient human COLO205 cells assessed as accumulation at subG1 phase at 10 uM after 24hrs by FACS analysis; assay type: functional
[21] = Induction of cell cycle arrest in p53 deficient human A2780/E6 cells assessed as accumulation at subG1 phase at 10 uM after 24hrs by FACS analysis; assay type: functional
SF-539 [22] = assay: Induction of cell cycle arrest in human SF539 cells expressing p53 gene assessed as accumulation at subG1 phase at 10 uM after 24 hrs by FACS analysis; assay type: functional
A2780 [23] = assay: Induction of cell cycle arrest in human A2780 cells expressing p53 gene assessed as accumulation at subG1 phase at 10 uM after 24 hrs by FACS analysis; assay type: functional
NHDF [24] = assay: Induction of cell cycle arrest in NHDF expressing p53 gene assessed as accumulation at subG1 phase at 10 uM after 24 hrs by FACS analysis; assay type: cell-based; details: human
K562 [25] = assay: Induction of cell cycle arrest in p53 deficient human K562 cells assessed as residual DNA synthesis at 5 uM after 24hrs by FACS analysis; assay type: functional
HeLa [26] = assay: Induction of cell cycle arrest in p53 deficient human HeLa cells assessed as residual DNA synthesis at 5 uM after 24hrs by FACS analysis; assay type: functional
COLO 205 [27] = assay: Induction of cell cycle arrest in p53 deficient human COLO205 cells assessed as residual DNA synthesis at 5 uM after 24 hrs by FACS analysis; assay type: functional
[28] = Induction of cell cycle arrest in p53 deficient human HCT116-E6 cells assessed as residual DNA synthesis at 5 uM after 24 hrs by FACS analysis; assay type: functional
[29] = Induction of cell cycle arrest in p53 deficient human A2780/E6 cells assessed as residual DNA synthesis at 5 uM after 24 hrs by FACS analysis; assay type: functional
HCT-15 [30] = assay: Induction of cell cycle arrest in human HCT15 cells expressing p53 gene assessed as residual DNA synthesis at 5 uM after 24 hrs by FACS analysis; assay type: functional
PC-3 [31] = assay: Induction of cell cycle arrest in human PC3 cells expressing p53 gene assessed as residual DNA synthesis at 5 uM after 24 hrs by FACS analysis; assay type: functional
NHDF [32] = assay: Induction of cell cycle arrest in NHDF expressing p53 gene assessed as residual DNA synthesis at 5 uM after 24 hrs by FACS analysis; assay type: cell-based; details: human
HeLa [33] = assay: Induction of cell cycle arrest in p53 deficient human HeLa cells assessed as residual DNA synthesis at 10 uM after 24 hrs by FACS analysis; assay type: functional
MCF7 [34] = assay: Induction of cell cycle arrest in human MCF7 cells expressing p53 gene assessed as residual DNA synthesis at 10 uM after 24 hrs by FACS analysis; assay type: functional
A2780 [35] = assay: Induction of cell cycle arrest in human A2780 cells expressing p53 gene assessed as residual DNA synthesis at 10 uM after 24 hrs by FACS analysis; assay type: functional

Chain of Mitogen-activated protein kinase 11 (Q15759 whole entry): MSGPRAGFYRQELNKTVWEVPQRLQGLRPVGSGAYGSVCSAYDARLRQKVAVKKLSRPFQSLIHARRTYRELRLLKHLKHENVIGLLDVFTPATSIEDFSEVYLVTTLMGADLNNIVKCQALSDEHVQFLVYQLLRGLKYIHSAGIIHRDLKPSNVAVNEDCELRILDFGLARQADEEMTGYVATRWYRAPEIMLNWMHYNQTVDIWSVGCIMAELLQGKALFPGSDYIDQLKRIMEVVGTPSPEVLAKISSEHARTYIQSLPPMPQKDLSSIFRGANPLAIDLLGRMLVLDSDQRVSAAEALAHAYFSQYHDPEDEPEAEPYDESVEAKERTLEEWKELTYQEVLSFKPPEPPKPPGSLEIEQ
Chain of Inhibitor of nuclear factor kappa-B kinase subunit beta (O14920 whole entry): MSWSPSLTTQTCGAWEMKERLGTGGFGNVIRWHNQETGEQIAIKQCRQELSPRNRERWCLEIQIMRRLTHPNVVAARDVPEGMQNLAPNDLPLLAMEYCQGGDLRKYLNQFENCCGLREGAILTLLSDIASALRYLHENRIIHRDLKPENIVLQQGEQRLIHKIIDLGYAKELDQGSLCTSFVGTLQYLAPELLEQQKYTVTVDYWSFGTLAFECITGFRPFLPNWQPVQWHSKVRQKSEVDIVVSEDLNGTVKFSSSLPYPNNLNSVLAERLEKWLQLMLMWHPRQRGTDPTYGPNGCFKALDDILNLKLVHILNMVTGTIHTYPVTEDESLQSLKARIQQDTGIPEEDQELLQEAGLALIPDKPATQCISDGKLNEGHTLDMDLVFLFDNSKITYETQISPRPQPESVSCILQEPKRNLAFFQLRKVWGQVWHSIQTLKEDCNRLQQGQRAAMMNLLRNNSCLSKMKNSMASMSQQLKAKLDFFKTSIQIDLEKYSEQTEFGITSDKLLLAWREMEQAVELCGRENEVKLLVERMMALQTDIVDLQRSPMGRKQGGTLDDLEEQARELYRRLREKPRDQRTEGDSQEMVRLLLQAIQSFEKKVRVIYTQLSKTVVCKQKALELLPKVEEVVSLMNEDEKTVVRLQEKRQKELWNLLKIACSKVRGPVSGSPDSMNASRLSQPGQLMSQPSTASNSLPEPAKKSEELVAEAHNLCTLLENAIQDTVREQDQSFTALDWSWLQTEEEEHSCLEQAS

O=C1NCCc2[nH]c(-c3ccncc3)cc21
Activity (HeLa [1]): 225 kilobase
Activity (HeLa [2]): 293 kilobase
Activity (HeLa [3]): 1.81 kilobase
Activity (HeLa [4]): 2.02 kilobase
Activity (HeLa [5]): 2.28 kilobase
Activity (NHDF [6]): Active
Activity [7]: 6.8%
Activity (NHDF [8]): Not Active
AUC (Rattus norvegicus): 21 µM·h
clearance [9]: 30 mL/min/kg
IC50 [10]: > 10 µM
IC50 [11]: > 10 µM
IC50 [12]: > 10 µM
IC50 (SF-268): 0.86 µM
IC50 [13]: 1.48 µM
IC50 (OVCAR-8): 1.56 µM
IC50 (HCT-15 [14]): 3.81 µM
IC50 (U2OS): 1.49 µM
IC50 (PC-3 [15]): 4.59 µM
Activity (K562 [16]): <3%
Activity (MCF7 [17]): 3%
Activity (SF-539 [18]): 3%
Activity (K562 [19]): <3%
Activity (COLO 205 [20]): >20%
Activity [21]: >20%
Activity (SF-539 [22]): 3%
Activity (A2780 [23]): >20%
Activity (NHDF [24]): < 3%
Activity (K562 [25]): 10%
Activity (HeLa [26]): <3%
Activity (COLO 205 [27]): <3%
Activity [28]: 3%
Activity [29]: <3%
Activity (HCT-15 [30]): <3%
Activity (PC-3 [31]): 3%
Activity (NHDF [32]): < 3%
Activity (HeLa [33]): <3%
Activity (MCF7 [34]): <3%
Activity (A2780 [35]): <3%
